Reference: US11969436B2, “Method for treating skin irritation caused by parabens” (Kao Corporation, priority 2017, dated 2024)

Experiments:
[1] = system: skin of subjects with sensitive skin; test: Stinging test A, sensory irritation on the cheek of subjects with sensitive skin; assay type: in vivo, human; conditions: nonwoven fabric with 600 μL of 16.4 mM aqueous solution on the cheek, 30 seconds to 5 minutes; FIG. 2
Protocol: Those who met all of the following criteria were selected as subjects with sensitive skin.
The subjects selected were tested for Stinging test A according to the following method.
After washing face with a make-up remover and a face wash, conditioning was performed in an environment of a temperature of 23° C. and a humidity of 50% for 5 minutes or more. A 2 cm×5 cm piece of nonwoven fabric which was impregnated with 600 μL of a 16.4 mM aqueous solution of methyl p-hydroxybenzoate or p-hydroxybenzoic acid was contacted to the cheek. For sensory irritation that the subjects felt (sore, stinging, pricking, smart, hot, flushed) 30 seconds, 1 minute, 2 minutes, 3 minutes, and 5 minutes after the start of the contact, the subjects submitted scores (0: nothing felt, 0.5: slightly felt or slight discomfort, 1.0: a little discomfort, 1.5: a little to moderate discomfort, 2.0: moderate discomfort, 2.5: moderate to much discomfort, 3.0: much or unbearable discomfort). A value obtained by subtracting, from the highest score of all the scores after 30 seconds to 5 minutes, the highest score in a test performed in the same manner as above except for using distilled water was determined as the sensory irritation score, and the sensory irritation score was statistically analyzed by the Nilcoxon signed-rank test.

[2] = system: three-dimensional cultured human epidermis model; test: IL-1α production in three-dimensional cultured human epidermis model (LabCyte EPI-MODEL 24); assay type: cell-based; conditions: 50 μL of 16.4 mM aqueous solution, cultured 6 hours, post-cultured 18 hours; FIG. 1
Protocol: LabCyte EPI-MODEL 24 (made by Japan Tissue Engineering Co., Ltd.) was used as a three-dimensional cultured human epidermis model. The culture insert was pre-cultured (5% CO2, 37° C.) in a 500 μL exclusive assay medium overnight, and the culture insert was transferred to a 24-well plate containing a fresh assay medium. 50 μL of a 16.4 mM aqueous solution of methyl p-hydroxybenzoate (MP) or p-hydroxybenzoic acid (PHBA) was added to the epidermal tissue in the culture insert, and the tissue was cultured for 6 hours. Then the culture insert was washed with phosphate buffer 10 times, and transferred to a 24-well plate containing a fresh assay medium, and post-cultured for 18 hours. After the post-culture, the amount of IL-1α in the medium was determined using Human IL-1 alpha/IL-1F1 Quantikine ELISA Kit (R&D Systems) according to the protocol attached.

CES1 = CES1 mRNA expression in normal human epidermal keratinocytes (real-time PCR, ΔΔ CT method); assay type: cell-based; conditions: 48 hours; for Relative gene expression level (with non treat as 1.0): CES1 mRNA, mean value ± SD, n = 3
Protocol: Normal human epidermal keratinocytes (Life Technologies Japan Ltd.) were seeded into a 6-well plate so that the number of cells in each well was […], and cultured in HuMedia-KG2 (KURABO INDUSTRIES LTD.) overnight. Then, an extract of broccoli sprouts (Broccoli Sprout Extract, Oryza Oil (. Fat Chemical Co., Ltd., for cosmetics) was added to the culture medium at a solid concentration of 0.0001 w/v % or 0.001 w/v %, and the cells were cultured for 48 hours. The ceils after culture was washed with D-PB3 (−) and RNA was extracted using RNeasy Mini Kits (QIAGEN) according to the manual attached. The RNA concentration was calculated by using NanoDrop 1000 (Thermo Fisher Scientific). Total RNA extracted was reverse-transcribed using High-Capacity RNA-to-cDNA Kit (Life Technologies Japan Ltd.), and then real-time PCR was performed using 7500 Fast Real-Time PCR System (Life Technologies Japan Ltd.). In the real-time PCR, the expression levels of CES1 mRNA were compared by the ΔΔ CT method using the above reverse transcribed cDNA and CES1, or, as an endogenous control, Tsqman primer for RPLP0 (Life Technologies Japan Ltd., CES1:Hs00275627-m1, RPLP0:HS00420695_gH), Taqma.n Gene Expression Master Mix (Life Technologies Japan Ltd.).
Normal human epidermal keratinocytes (Life Technologies Japan Ltd.) were seeded into a 6-well plate so that the number of cells in each well was […] and cultured in HuMedia-KG2 (KURABO INDUSTRIES LTD.) overnight. Then, suiforaphane (Sigma-Aldrich) was exposed to the cells so that the final concentration was 0.1, 1, and 10 μM, and the cells were cultured for 48 hours. The cells after culture was washed with a phosphate buffer (D-PBS (−)) and RNA was extracted using RNeasy Mini Kits (QIAGEN) according to the manual attached. The RNA concentration was calculated by using NanoDrop 1000 (Thermo Fisher Scientific). Total RNA extracted was reverse-transcribed using High-Capacity RNA-to-cDNA Kit (Life Technologies Japan Ltd.), and then real-time PCR was performed using 7500 Fast Real-Time PCR System (Life Technologies Japan Ltd.). In the real-time PCR, the expression levels of the gene were compared by the ΔΔ CT method using the above reverse transcribed cDNA and carboxylesterase 1, or, as an endogenous control, Taqman primer for RPLP0 (Life Technologies Japan Ltd., CES1:Hs00275627-m1, RPLP0:HS00420895_gH), Taqman Gene Expression Master Mix (Life Technologies Japan Ltd.).

| amount of IL-1α in the medium [2] | Structure (SMILES) | sensory irritation score [1] | Relative gene expression level (with non treat as 1.0) (CES1; sulforaphane 0.1 μM) | Relative gene expression level (with non treat as 1.0) (CES1; sulforaphane 1 μM) | Relative gene expression level (with non treat as 1.0) (CES1; sulforaphane 10 μM) | expression level of CES1 mRNA (CES1; sulforaphane 0.1, 1 and 10 μM, summary of Table 1) |
| --- | --- | --- | --- | --- | --- | --- |
| much smaller than that when MP was used | O=C(O)c1ccc(O)cc1 [PHBA, p-hydroxybenzoic acid] | very mild |  |  |  |  |
|  | C[S+]([O-])CCCCN=C=S (stereo not shown) [Sulforaphane, 4-(methylsulfinyl)butyl isothiocyanate] |  | 1.5 ± 0.33 | 3.6 ± 0.90 | 35 ± 8.4 | increased the expression level of CES1 mRNA |
|  | COC(=O)c1ccc(O)cc1 [MP, methyl p-hydroxybenzoate] | felt some irritation |  |  |  |  |
